Source: US9932381B2, “Exendin-4 derivatives as selective glucagon receptor agonists” (priority 2014, dated 2018)

What was measured:
[1] = Solubility testing of exendin-4 derivatives (HPLC-UV of supernatant); format: physicochemical; conditions: pH 7.4
Method: Prior to the testing of solubility and stability of a peptide batch, its content was determined. Therefore, two parameters were investigated, its purity (HPLC-UV) and the amount of salt load of the batch (ion chromatography).
HPLC-UV was performed after 2 h of gentle agitation from the supernatant, which was obtained by 20 min of centrifugation at 4000 rpm.

[2] = target: T1, human GLP-1 receptor (hGLP-1 R) (Homo sapiens, UniProt P43220); test: cAMP response (HTRF) of HEK-293 cells stably expressing human GLP-1 receptor; format: cell-based; conditions: Table 4
T1 construct: expressed in transfected cells; host or cells: HEK-293
T1 sequence (P43220 24-463): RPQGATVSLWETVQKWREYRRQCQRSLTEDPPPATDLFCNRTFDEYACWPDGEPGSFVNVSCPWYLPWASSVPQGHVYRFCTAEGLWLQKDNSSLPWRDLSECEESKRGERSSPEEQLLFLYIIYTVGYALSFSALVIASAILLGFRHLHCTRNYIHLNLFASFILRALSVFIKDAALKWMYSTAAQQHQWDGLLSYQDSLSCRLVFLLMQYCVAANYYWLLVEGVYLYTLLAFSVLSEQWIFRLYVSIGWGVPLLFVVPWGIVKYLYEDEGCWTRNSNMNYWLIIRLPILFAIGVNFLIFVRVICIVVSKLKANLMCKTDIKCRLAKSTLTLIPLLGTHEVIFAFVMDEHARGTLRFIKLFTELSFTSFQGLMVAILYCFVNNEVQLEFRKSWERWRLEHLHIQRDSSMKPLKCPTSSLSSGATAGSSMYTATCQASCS
Outline: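 Detached HEK-293 cells were suspended in HBSS with 20 mM HEPES, 0.1% BSA and 2 mM IBMX, then exposed to compound for 30 min at room temperature. cAMP was read by HTRF (665/620 nm ratio) after 1 h with detection reagents in lysis buffer. EC50 is the concentration giving 50% of maximal activation.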

hepatic glycogenolysis = test: Blood glucose profile in anesthetized rats; format: in vivo, male Wistar rats; conditions: for effect on blood glucose: 10 to 30 μg/kg s.c.
Method: The method aimed to study a test compound on the process of hepatic glycogenolysis. The rats had free access to food until the start of the experiment. […] The effect of GCG-mimetic on hepatic glycogenolysis and the subsequent hyperglycemic peak in the blood was compared to the effect obtained with a subcutaneous bolus injection of GCG at a dose of 30 μg/kg.
Rats were anaesthetized with an intraperitoneal injection of pentobarbital sodium (60 mg/kg) and ketamine (10 mg/kg) and tracheotomized. Anesthesia was maintained for up to 5 hours by subcutaneous infusion of pentobarbital sodium (adjusted to the anesthetic depth of the individual animal; about 24 mg/kg/h). Body temperature was monitored with a rectal probe thermometer, and temperature was maintained at 37° C. by means of a heated surgical table. Blood samples for glucose analysis (10 μl) were obtained from the tip of the tail every 15 minutes. The rats were allowed to stabilize their blood glucose levels after surgery for up to 2 hours. Then, GCG as reference compound, or the test compound were administered subcutaneously. For GCG a dose of 30 μg/kg was used to induce hepatic glycogenolysis.

blood glucose = test: Blood glucose profile in normoglycemic Beagle dogs; format: in vivo, male normoglycemic Beagle dogs; conditions: for effect on blood glucose relative to human glucagon: s.c. injection; for induction of a blood glucose response, SEQ. ID 5 vs. SEQ. ID 6: normoglycemic dogs
Method: Male normoglycemic Beagle dogs were fasted overnight before and during the entire experiment. The animals were randomized to groups of n=6 per group. […] The injection solutions were prepared freshly prior to the experiment. The test compound was administered as a single injection via three different routes (s.c., i.m. and i.v.) at doses of 1-100 μg/kg. […] Blood glucose was determined enzymatically (hexokinase method) from whole blood, insulin was analyzed from K-EDTA plasma with a dog-specific ELISA assay.

SMILES	solubility at 2 h [1]	EC50 [2]	time of blood glucose peak after injection (hepatic glycogenolysis; 10 μg/kg s.c.)	blood glucose excursion compared to 30 μg/kg GCG (hepatic glycogenolysis; 20 μg/kg s.c.)	time of blood glucose peak after injection (hepatic glycogenolysis; 20 μg/kg s.c.)	time of blood glucose peak after injection (hepatic glycogenolysis; 30 μg/kg s.c.)	effect on blood glucose (hepatic glycogenolysis)	peak increase of blood glucose (blood glucose; 10 μg/kg s.c., dog)	subcutaneous versus intramuscular injection (blood glucose; dog)	glucose excursion at higher doses (blood glucose; doses beyond 10 μg/kg s.c., dog)	effect on blood glucose relative to human glucagon (blood glucose; dog)	duration of the glucose response (blood glucose; s.c., dog, versus human glucagon)	induction of a blood glucose response, SEQ. ID 5 vs. SEQ. ID 6 (blood glucose; s.c.)	activity by route of administration (blood glucose; subcutaneous, intramuscular and intravenous injection, dog)	blood glucose excursion compared to 30 μg/kg GCG (hepatic glycogenolysis; 10 μg/kg s.c.)
CC[C@H](C)[C@H](NC(=O)[C@H](Cc1ccccc1)NC(=O)[C@H](CCC(=O)O)NC(=O)[C@H](CCC(N)=O)NC(=O)[C@H](C)NC(=O)[C@H](CCCNC(=N)N)NC(=O)[C@H](CCCNC(=N)N)NC(=O)[C@H](CO)NC(=O)[C@H](CCC(=O)O)NC(=O)[C@H](CC(C)C)NC(=O)[C@H](CCC(N)=O)NC(=O)[C@H](CCCCN)NC(=O)[C@H](CO)NC(=O)[C@H](Cc1ccc(O)cc1)NC(=O)[C@H](CC(=O)O)NC(=O)[C@H](CO)NC(=O)[C@@H](NC(=O)[C@H](Cc1ccccc1)NC(=O)[C@@H](NC(=O)CNC(=O)[C@H](CCC(N)=O)NC(=O)[C@H](CO)NC(=O)[C@@H](N)Cc1cscn1)[C@@H](C)O)[C@@H](C)O)C(=O)N[C@@H](CCC(=O)O)C(=O)N[C@@H](Cc1c[nH]c2ccccc12)C(=O)N[C@@H](CC(C)C)C(=O)N[C@@H](CC(C)C)C(=O)N[C@@H](C)C(=O)NCC(=O)NCC(=O)N1CCC[C@H]1C(=O)N[C@@H](CCC(=O)O)C(=O)N[C@@H](CO)C(=O)NCC(=O)N[C@@H](C)C(=O)N1CCC[C@H]1C(=O)N1CCC[C@H]1C(=O)N1CCC[C@H]1C(=O)N[C@@H](CO)C(=O)O [SEQ ID NO 5, Tza-SQGTFTSDYSKQLESRRAQEFIEWLLAGGPESGAPPPS-OH]	> 10000 µg/mL	2.19 nM	30 min	nearly comparable shape of blood glucose excursion	45 min	90 min	dose-dependent increase of blood glucose	3.5 to 4 mmol/L	no difference in activity and blood glucose time-action profile	did no longer result in higher glucose excursion	mimicked the effect of human glucagon on blood glucose	slightly longer	similarly active	active through all parenteral routes	–
CC[C@H](C)[C@H](NC(=O)[C@H](Cc1ccccc1)NC(=O)[C@H](CCC(=O)O)NC(=O)[C@H](CCC(N)=O)NC(=O)[C@H](C)NC(=O)[C@H](CCCNC(=N)N)NC(=O)[C@H](CCCNC(=N)N)NC(=O)[C@H](CO)NC(=O)[C@H](CCC(=O)O)NC(=O)[C@H](CC(C)C)NC(=O)[C@H](CCC(N)=O)NC(=O)[C@H](CCCCN)NC(=O)[C@H](CO)NC(=O)[C@H](Cc1ccc(O)cc1)NC(=O)[C@H](CC(=O)O)NC(=O)[C@H](CO)NC(=O)[C@@H](NC(=O)[C@H](Cc1ccccc1)NC(=O)[C@@H](NC(=O)CNC(=O)[C@H](CCC(N)=O)NC(=O)[C@H](CO)NC(=O)[C@@H](N)Cc1cscn1)[C@@H](C)O)[C@@H](C)O)C(=O)N[C@@H](CCC(=O)O)C(=O)N[C@@H](Cc1c[nH]c2ccccc12)C(=O)N[C@@H](CC(C)C)C(=O)N[C@@H](CC(C)C)C(=O)N[C@@H](C)C(=O)N[C@H](C(=O)NCC(=O)N1CCC[C@H]1C(=O)N[C@@H](CCC(=O)O)C(=O)N[C@@H](CO)C(=O)NCC(=O)N[C@@H](C)C(=O)N1CCC[C@H]1C(=O)N1CCC[C@H]1C(=O)N1CCC[C@H]1C(=O)N[C@@H](CO)C(=O)O)[C@@H](C)O [SEQ ID NO 6, Tza-SQGTFTSDYSKQLESRRAQEFIEWLLATGPESGAPPPS-OH]	> 10000 µg/mL	9.3 nM	30 min	–	–	60 min	dose-dependent increase of blood glucose	–	–	–	mimicked the effect of human glucagon on blood glucose	–	similarly active	–	more powerful blood glucose excursion
